Assay results as given in ChEMBL document CHEMBL6121035, “An Unexpected Activity of a Minor Cannabinoid: Cannabicyclol (CBL) Is a Potent Positive Allosteric Modulator of Serotonin 5-HT1A Receptor” (J Nat Prod, 2025).
Activity calls are given as the source filed them. The calls are words filed in the database; no cut-off is given here.

What was measured:
[1] = molecular target: T1, 5-hydroxytryptamine receptor 1A (Homo sapiens) (UniProt P08908); experiment: Positive allosteric modulation of N-terminal FLAG-tagged Rluc8-fused human 5-HT-1A expressed in HEK293T cells by BRET assay relative to control; format: cell-based
T1 sequence (whole entry): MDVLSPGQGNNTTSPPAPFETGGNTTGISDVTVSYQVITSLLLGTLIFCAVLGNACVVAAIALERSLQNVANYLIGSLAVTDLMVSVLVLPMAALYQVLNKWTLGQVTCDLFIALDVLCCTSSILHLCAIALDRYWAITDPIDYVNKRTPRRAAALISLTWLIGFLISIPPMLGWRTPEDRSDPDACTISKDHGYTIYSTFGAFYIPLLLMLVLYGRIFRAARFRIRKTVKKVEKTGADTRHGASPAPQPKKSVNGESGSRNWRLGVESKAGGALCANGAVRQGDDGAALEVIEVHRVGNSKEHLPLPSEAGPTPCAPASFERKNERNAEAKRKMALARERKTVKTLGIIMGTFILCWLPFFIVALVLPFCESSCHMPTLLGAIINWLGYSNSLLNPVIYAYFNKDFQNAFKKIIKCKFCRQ

[2] = molecular target: T1, 5-hydroxytryptamine receptor 1A (Homo sapiens); experiment: Agonist activity at PK-tagged human 5-HT-1A receptor expressed in CHO-K1 cells at 12 uM incubated for 90 mins by measuring beta-arrestin recruitment by PathHunter assay relative to control; format: functional, cell-based
[3] = molecular target: T1, 5-hydroxytryptamine receptor 1A (Homo sapiens); experiment: Agonist activity at PK-tagged human 5-HT-1A receptor expressed in CHO-K1 cells at > 0.5 uM incubated for 90 mins by measuring beta-arrestin recruitment by PathHunter assay; format: functional, cell-based; settings: filed as agonist
[4] = molecular target: T1, 5-hydroxytryptamine receptor 1A (Homo sapiens); experiment: (§1) Positive allosteric modulation of PK-tagged human 5-HT-1A receptor expressed in CHO-K1 cells assessed as receptor activation at 12 uM in presence of serotonin preincubated with compound for 30 mins followed by serotonin addition and measured after 90 mins by measuring beta arrestin recruitment by chemiluminescence based envision reader analysis; format: functional, cell-based
[5] = molecular target: T1, 5-hydroxytryptamine receptor 1A (Homo sapiens); experiment: Displacement of [3H]-8-Hydroxy-DPAT from 5-HT-1A receptor (unknown origin) at 1 uM incubated for 90 mins by Radioligand binding assay relative to control
[6] = molecular target: T1, 5-hydroxytryptamine receptor 1A (Homo sapiens); experiment: as §1, with “activation” for “activation at 12 uM”; format: functional, cell-based; settings: filed as positive allosteric modulator, dose 0.6-12000 nM
[7] = molecular target: Cannabinoid receptor 1 (Homo sapiens) (UniProt P21554); experiment: Displacement of [3H]-CP55940 from cannabinoid CB1 receptor (unknown origin) at 1 to 10 uM incubated for 90 mins by Radioligand binding assay; settings: dose 1-10 µM
Spike glycoprotein = Spike glycoprotein (Severe acute respiratory syndrome coronavirus 2, UniProt P0DTC2); experiment: Inhibition of SARS-COV-2 spike protein
[8] = Stability of compound in MCT oil at 40 degreeC measured upto 2 months by HPLC-DAD analysis; format: physicochemical; settings: 1460 h
[9] = molecular target: Cannabinoid receptor 2 (Homo sapiens) (UniProt P34972); experiment: Displacement of [3H]-CP55940 from cannabinoid CB2 receptor (unknown origin) at 1 uM incubated for 90 mins by Radioligand binding assay
[10] = molecular target: T1, 5-hydroxytryptamine receptor 1A (Homo sapiens); experiment: as §1, with “activation at 50 nM in presence” for “activation at 12 uM in presence”, “of serotonin at 40 nM preincubated with” for “of serotonin preincubated with”; format: functional, cell-based; settings: filed as positive allosteric modulator, time 120.0 min
[11] = molecular target: T1, 5-hydroxytryptamine receptor 1A (Homo sapiens); experiment: as §1, with “activation at 1 uM in” for “activation at 12 uM in”, “of serotonin at 175 nM preincubated with” for “of serotonin preincubated with”, “reader analysis relative to control” for “reader analysis”; format: functional, cell-based; settings: filed as positive allosteric modulator
[12] = molecular target: T1, 5-hydroxytryptamine receptor 1A (Homo sapiens); experiment: as §1, with “4” for “12”, “analysis relative to control” for “analysis”; format: functional, cell-based; settings: filed as positive allosteric modulator
[13] = Stability of compound at 25 degreeC measured upto 2 months by HPLC-DAD analysis; format: physicochemical; settings: 1460 h
[14] = molecular target: T1, 5-hydroxytryptamine receptor 1A (Homo sapiens); experiment: as §1, with “activation at > 10 uM in” for “activation at 12 uM in”, “of serotonin at 175 nM preincubated with” for “of serotonin preincubated with”; format: functional, cell-based

Cannabinoid receptor 1 (Homo sapiens), sequence (P21554 whole entry): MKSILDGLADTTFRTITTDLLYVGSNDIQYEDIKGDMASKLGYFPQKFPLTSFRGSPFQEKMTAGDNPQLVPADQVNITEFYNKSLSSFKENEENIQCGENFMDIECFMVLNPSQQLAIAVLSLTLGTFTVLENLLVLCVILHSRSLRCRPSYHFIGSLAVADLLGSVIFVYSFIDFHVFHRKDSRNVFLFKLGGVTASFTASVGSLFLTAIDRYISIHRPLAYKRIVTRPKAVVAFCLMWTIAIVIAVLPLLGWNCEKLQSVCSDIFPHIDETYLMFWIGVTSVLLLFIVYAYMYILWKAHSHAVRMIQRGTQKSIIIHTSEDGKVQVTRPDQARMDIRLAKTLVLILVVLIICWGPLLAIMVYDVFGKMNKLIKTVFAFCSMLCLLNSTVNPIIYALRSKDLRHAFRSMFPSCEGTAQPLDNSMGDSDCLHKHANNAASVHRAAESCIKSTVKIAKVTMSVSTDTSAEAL
Cannabinoid receptor 2 (Homo sapiens), sequence (P34972 whole entry): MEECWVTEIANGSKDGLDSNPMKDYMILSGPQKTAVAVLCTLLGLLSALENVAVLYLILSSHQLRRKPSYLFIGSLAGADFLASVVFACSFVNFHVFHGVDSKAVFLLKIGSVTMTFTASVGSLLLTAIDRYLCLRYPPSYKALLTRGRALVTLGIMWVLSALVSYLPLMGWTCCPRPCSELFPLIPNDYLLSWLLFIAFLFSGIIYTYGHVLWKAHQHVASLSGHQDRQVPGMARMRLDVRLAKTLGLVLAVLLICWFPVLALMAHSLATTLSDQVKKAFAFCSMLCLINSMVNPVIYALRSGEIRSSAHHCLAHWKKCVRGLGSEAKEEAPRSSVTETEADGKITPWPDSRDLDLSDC

CCCCCn1cc(C(=O)c2cccc3ccccc23)c2ccccc21
Activity [1]: 12%

CCCCCc1cc(O)c2c(c1)OC1(C)CCC3C1C2C3(C)C (racemic) [CANNABICYCLOL]
Activity [2]: 15% | Activity [3]: Active; Minimal Agonist Activity Observed | Activity [4]: inactive | Activity [5]: 20% | Activity [6]: Dose-dependent-effect | Activity [7]: inactive | EC50 (Spike glycoprotein): 10.8 µM | Stability [8]: Stable | Activity [9]: inactive | Activity [10]: Active | Activity [11]: 100% | Activity [12]: 80% | Stability [13]: Stable | Activity [14]: inactive

O=C(c1cccc2ccccc12)c1cn(CCCCCF)c2ccccc12
Activity [1]: 21%
